According to ChEMBL document CHEMBL2331416, “Investigation of antibacterial mode of action for traditional and amphiphilic aminoglycosides” (Bioorg Med Chem Lett, 2013):
Values after ≈ are worked out from the molar mass of the structure shown. Active and inactive are the calls of the source. No cut-off for these calls is given here.

How the values were obtained:
[1] = Binding affinity to 2-AP labeled 16s rRNA (unknown origin) having pairing of C1405-G1496 by fluorescence assay
[2] = Binding affinity to 2-AP labeled 16s rRNA (unknown origin) having pairing of G1405-C1496 by fluorescence assay
Staphylococcus aureus [3] = assay: Antibacterial activity against Staphylococcus aureus ATCC 25923 assessed as growth inhibition; assay type: functional
Escherichia coli [4] = assay: Antibacterial activity against Escherichia coli ATCC 25922 assessed as growth inhibition; assay type: functional
Staphylococcus aureus [5] = assay: Antibacterial activity against Staphylococcus aureus ATCC 25923 assessed as membrane disruption at 4 X MIC after 2 hrs by SYTOX staining-based fluorescence microscopic analysis; assay type: functional, organism-based
Escherichia coli [6] = assay: Antibacterial activity against Escherichia coli ATCC 25922 assessed as membrane disruption at 4 X MIC after 2 hrs by SYTOX staining-based fluorescence microscopic analysis; assay type: functional, organism-based

Kd [1] [nM]	Kd [2]	MIC (Staphylococcus aureus [3]) [µM]	MIC (Escherichia coli [4]) [µM]	Kd ([2]; read-out: Kd) [nM]	SMILES	Activity (Staphylococcus aureus [5])	Activity (Escherichia coli [6])
1150	Not Active	59.2 (≈ 28.6 µg/mL)	57.2 (≈ 27.7 µg/mL)	–	NC[C@H]1O[C@H](O[C@H]2[C@H](O[C@@H]3O[C@H](CO)[C@@H](O)[C@H](N)[C@H]3O)[C@@H](O)[C@H](N)C[C@@H]2N)[C@H](N)[C@@H](O)[C@@H]1O	–	–
1360	–	2.8 (≈ 1.5 µg/mL)	5.59 (≈ 3 µg/mL)	650	C[C@H]1O[C@@H](O[C@@H]2[C@@H](O)[C@H](NC(=O)[C@@H](O)CCN)C[C@H](N)[C@H]2O[C@H]2O[C@H](CN)CC[C@H]2N)[C@H](O)[C@@H](O)[C@@H]1N [PYRANKACIN]	–	–
608	–	44.4 (≈ 21.5 µg/mL)	92.4 (≈ 44.8 µg/mL)	9670	NC[C@H]1O[C@H](O[C@H]2[C@H](O[C@@H]3O[C@H](CO)[C@@H](O)[C@H](O)[C@H]3O)[C@@H](O)[C@H](N)C[C@@H]2N)[C@H](N)[C@@H](O)[C@@H]1O	–	–
1640	Not Active	2.15 (≈ 1.54 µg/mL)	8.59 (≈ 6.15 µg/mL)	–	NCC[C@H](O)C(=O)N[C@@H]1C[C@H](N)[C@@H](O[C@H]2O[C@H](CN)[C@@H](O)[C@H](O)[C@H]2N)[C@H](O[C@@H]2O[C@H](CO)[C@@H](O[C@@H]3O[C@H](CN)[C@H](O)[C@@H](O)[C@@H]3N)[C@H]2O)[C@H]1O [NEOKACIN]	–	–
1270	–	1.1 (≈ 0.676 µg/mL)	4.4 (≈ 2.7 µg/mL)	1150	NC[C@@H]1O[C@H](O[C@H]2[C@@H](O)[C@H](O[C@@H]3[C@@H](O)[C@H](N)C[C@H](N)[C@H]3O[C@H]3O[C@H](CN)[C@@H](O)[C@H](O)[C@H]3N)O[C@@H]2CO)[C@H](N)[C@@H](O)[C@@H]1O [FRAMYCETIN]	inactive	–
845	–	14.8 (≈ 7.16 µg/mL)	35.1 (≈ 17 µg/mL)	26000	NC[C@H]1O[C@@H](O[C@@H]2[C@@H](O)[C@H](N)C[C@H](N)[C@H]2O[C@H]2O[C@H](CN)[C@@H](O)[C@H](O)[C@H]2N)[C@H](O)[C@@H](O)[C@@H]1O	–	–
556	Not Active	11 (≈ 5.14 µg/mL)	19.8 (≈ 9.26 µg/mL)	–	C[C@H]1O[C@@H](O[C@@H]2[C@@H](O)[C@H](N)C[C@H](N)[C@H]2O[C@H]2O[C@H](CN)[C@@H](O)[C@H](O)[C@H]2N)[C@H](O)[C@@H](O)[C@@H]1N	–	–
261	–	29.6 (≈ 14.3 µg/mL)	41.8 (≈ 20.2 µg/mL)	3720	NC[C@H]1O[C@@H](O[C@@H]2[C@@H](O)[C@H](N)C[C@H](N)[C@H]2O[C@H]2O[C@H](CN)[C@@H](O)[C@H](O)[C@H]2N)[C@H](O)[C@@H](O)[C@@H]1N	–	–
737	–	2.35 (≈ 2 µg/mL)	4.69 (≈ 4 µg/mL)	1270	CCCCCCCCCCCCCCCC(=O)NC[C@H]1O[C@@H](O[C@@H]2[C@@H](O)[C@H](N)C[C@H](N)[C@H]2O[C@H]2O[C@H](CN)[C@@H](O)[C@H](O)[C@H]2N)[C@H](O)[C@@H]1O[C@@H]1O[C@H](CN)[C@H](O)[C@@H](O)[C@@H]1N	Active	Active
1200	–	6.5 (≈ 2.84 µg/mL)	26 (≈ 11.3 µg/mL)	1330	C[C@H]1O[C@@H](O[C@@H]2[C@@H](O)[C@H](N)C[C@H](N)[C@H]2O[C@H]2O[C@H](CN)CC[C@H]2N)[C@H](O)[C@@H](O)[C@@H]1O	–	–
2830	–	29.6 (≈ 14.3 µg/mL)	44 (≈ 21.3 µg/mL)	5680	NC[C@H]1O[C@H](O[C@H]2[C@H](O[C@@H]3O[C@H](CO)[C@@H](N)[C@H](O)[C@H]3O)[C@@H](O)[C@H](N)C[C@@H]2N)[C@H](N)[C@@H](O)[C@@H]1O	–	–
